The values that follow come from patent US20230201151A1, “FORMULATIONS AND METHODS FOR TREATING ACUTE RESPIRATORY DISTRESS SYNDROME, ASTHMA, OR ALLERGIC RHINITIS” (UNIVERSITY OF FLORIDA RESEARCH FOUNDATION, INC., priority 2020, published 2023).

Where only a bound is given, the exact number is not on record here.

Holding throughout (assay type): cell-based, human
The subject of test [1] is ENaC. The test can be described thus: ENaC current in HBEC after increasing cytokine concentrations for 7 days (FIGS. 9-11). The settings on record: for ENaC activity with increasing cytokine concentration: 7 days (FIGS. 9, 11). The protocol: FIG. 9: ENaC Activity in Human Bronchial Epithelial Cells after Exposure to Increasing Concentrations of TNF-α for 7 Days. Human bronchial epithelial cells (HBEC) were treated with different concentrations of TNF-α (0.00005, 0.0005, 0.005, 0.05, 0.5, 5, 50 or 500 ng/mL media) for 7 days.
FIG. 10: ENaC Activity in Human Bronchial Epithelial Cells after Exposure to Increasing Concentrations of IFN-γ for 7 Days. HBEC were treated with IFN-γ (0.00005, 0.0005, 0.005, 0.05, 0.5, 5, 50 or 500 ng/mL media) for 7 days.
FIG. 11: ENaC Activity in Human Bronchial Epithelial Cells after Exposure to Increasing Concentrations of TGF-β1 for 7 Days. HBEC were treated with TGF-β1 (0.00005, 0.0005, 0.005, 0.05, 0.5, 5, 50 or 500 ng/mL media) for 7 days.
In some embodiments, HBECs were treated with different concentrations of TNF-α ranging from 0.00005 ng/mL to 500 ng/mL TNF-α (e.g., 0.00005, 0.0005, 0.005, 0.05, 0.5, 5, 50 or 500 ng/mL TNF-α in media) for 7 days.

Another test has as its system HBECs. Briefly: TEER (epithelial barrier function) in differentiated HBECs, Ussing chamber. The settings on record: for cytokine concentration that increased TEER / epithelial resistance: 7 days incubation; for TEER, normalized to control: day 16. The protocol:
(§1) High individual variation in benzamil-sensitive current and TEER in HBECs. In an Ussing chamber-based experimental design, basal short-circuit current (Isc) and transepithelial electrical resistance (TEER) were recorded in differentiated HBECs from two lung donors that were grown on snapwells at an air-liquid interface for 28 to 35 days. Benzamil, a potent ENaC blocker was used to determine ENaC activity by calculating benzamil-sensitive Isc from changes in Isc that occur 15 minutes after adding 6 μM benzamil to the apical side of cells. […] Therefore, normalized data were used for all subsequent experiments for statistical analyses relating to FIGS. 13-18.
(§2) Basal treatment with cytokines [IL-13 (Abcam), IL-4 (PeproTech), TNF-α, IFN-γ and TGF-β1 (R&D Systems)] diluted in ALI medium started as early as day 14 post differentiation. Individual cytokines or cytokine cocktails were added to the culture medium at the desired concentrations and cells were incubated with the cytokines for a maximum of 16 days. ALI medium containing cytokines was changed every two days. Age-matched HBECs were assigned to the following treatment groups:
(§3) II Time-dependent studies: These studies were done using a concentration that ensured maximum inhibition of benzamil-sensitive Isc and TEER. HBECs were treated with respective cytokines for 2, 4, 6, 8, 10, 12, 14, or 16 days. IFN-γ, TNF-α or TGF-β1 at 1 ng/mL, IL-13 at 20 ng/mL and IL-4 at 2 ng/mL were used.
(§4) III Cytokine cocktails: were prepared using IFN-γ and TNF-α at 0.05, 0.5, 2.5, 5 and 10 ng/mL while TNF-α, IFN-γ and TGF-β1 at 1 ng/mL for each of the cytokines was added to the culture media for 7 days.
(§5) Ussing chamber experiments: Snapwells with differentiated HBECs that were incubated with cytokines or age-matched HBECs without cytokine exposure were mounted in Ussing chambers (Physiologic Instruments), and cells were either bathed in isotonic ringer solution containing 113.8 mM Na^+, 93.6 mM Cl^−, 25 mM HCO3^−, 5.2 mM K^+, 2.4 mM HPO4^−, 0.4 mM H2PO4^−, 1.2 mM Mg^2+, 1.2 mM Ca^2+, and 75 mM mannitol, or in AA-EC01. Glucose (5 mM) was added to the basal side, and chambers were bubbled with 95% O2 and 5% CO2 at 37° C. AA-EC01 contained 8 mM lysine, 8 mM tryptophan, 8 mM arginine, 8 mM glutamine, and 1.2 mM tyrosine, and AANC contained 8 mM leucine, 8 mM cysteine, 8 mM isoleucine, 8 mM aspartic acid and 8 mM glutamate (Ajinomoto), both diluted in an electrolyte solution containing 113.8 mM Na^t, 93.6 mM Cl^−, 25 mM HCO3^−, 5.2 mM K^+, 2.4 mM HPO4^−, 0.4 mM H2PO4^−, 1.2 mM Mg′, 1.2 mM Ca^2+ and 40 mM mannitol at pH 7.4 and 300 mOsm. Cell cultures were allowed to equilibrate in the Ussing chambers for 30 minutes while continuously voltage clamped to 0 mV. Basal short circuit current (Isc) and transepithelial electrical resistance (TEER) were recorded at 30-second intervals, and benzamil-sensitive Isc was calculated from the difference of basal Isc recorded after 30 minutes and Isc measured at 15 minutes after adding 6 μM of benzamil (ThermoFisher) to the apical side.
(§6) Statistical analysis: Results are presented as mean±standard error of mean (SEM). Analyses were performed with OriginPro 2018 software package. For each treatment group, values were tested for normal distribution using the Shapiro-Wilk normality test. […] The values were normalized to controls within the group, and data were pooled for comparison between groups. Kruskal-Wallis test was used for comparing the overall effect of ringer, AA-EC01 and AANC on benzamil-sensitive Isc and TEER, and Mann Whitney U test was used for pairwise comparison within the group and for comparison between basal values for each cytokine at zero ng/mL or day zero with each concentration and time period studied. P<0.05 was considered significant, and NS indicates not significant.

For test [2], the system named is ENaC. Briefly: Benzamil-sensitive Isc (ENaC activity) in differentiated HBECs, Ussing chamber. Particulars: for cytokine concentration that decreased benzamil-sensitive Isc: 7 days incubation. The method, then:
as §1, §2, §3, §4, §5, §6

Take “TGF-β1: Treg cytokine (R&D Systems) added to HBEC culture medium”: the “ENaC activity with increasing cytokine concentration” value in the test on ENaC [1] is on record as “concentration-dependent decrease”. Moreover, the TEER over time result in the test on HBECs (1 ng/mL cytokine, up to 16 days) is on record as “remained unaffected”. Also, the “cytokine concentration that increased TEER / epithelial resistance” value in the test on HBECs was not below 5 ng/mL. The “benzamil-sensitive Isc, normalized to control” value was determined as 64.4±8.3% in the test on ENaC [2] (1 ng/mL cytokine, day 4); 20.3±5.8% in the test with ENaC [2] (1 ng/mL cytokine, day 16); 70.4±2.5% in the test on ENaC [2] (TGF-β1 0.5 ng/mL, 7 days); 1.5±0.3% in the test with ENaC [2] (TGF-β1 50 ng/mL, 7 days). Besides, in the test with ENaC [2], the “cytokine concentration that decreased benzamil-sensitive Isc” value is not below 0.5 ng/mL.

Turning to “IFN-γ: type II IFN family cytokine (R&D Systems) added to HBEC culture medium”, in the test with ENaC [1] (7 days (FIG. 10)), the “IFN-γ concentration at which ENaC current decreased relative to baseline” value is given as more than 0.05 ng/mL media and the “IFN-γ concentration with significant decrease in ENaC activity” value is more than 5 ng. Also, in the test with HBECs (1 ng/mL cytokine), the “TEER, normalized to control” value is reported as 142.5±12.3%. Also, the “cytokine concentration that increased TEER / epithelial resistance” value in the test with HBECs is not below 0.5 ng/mL. Moreover, in the test with ENaC [2] (1 ng/mL cytokine, day 16), the “benzamil-sensitive Isc, normalized to control” value worked out at 43.7±7.0%. Also, in the test with ENaC [2], the “cytokine concentration that decreased benzamil-sensitive Isc” value is listed as more than 20 ng/mL. Further, the “benzamil-sensitive Isc, of baseline values” with ENaC [2] (IFN-γ 5×10^−4 ng/mL, 7 days, normalized to control) came to 161.62±9.7%.

Turning to TNF-α, in the test with ENaC [1], the “ENaC activity with increasing cytokine concentration” value is listed as “concentration-dependent decrease”. Also, in the test on HBECs (1 ng/mL cytokine), the “TEER, normalized to control” value turned out to be 132.6±9.0%. Besides, the “benzamil-sensitive Isc, normalized to control” value came out at 81.2±5.4% in the test on ENaC [2] (1 ng/mL cytokine, day 4) and 39.2±2.4% in the test with ENaC [2] (1 ng/mL cytokine, day 16). The “cytokine concentration that decreased benzamil-sensitive Isc” value in the test on ENaC [2] is given as not below 0.05 ng/mL. Moreover, the “benzamil-sensitive Isc, normalized to control (plateau of reduction)” value in the test with ENaC [2] (TNF-α around 10 ng/mL, 7 days) was 17.4±3.6%.

In the case of “IL-4: Th2 cytokine (PeproTech) added to HBEC culture medium”, in the test with HBECs (2 ng/mL IL-4, day 10), the “TEER, normalized to control (maximum inhibition)” value was 37.5±2%. Also, in the test on ENaC [2] (2 ng/mL IL-4, day 4), the “benzamil-sensitive Isc, normalized to control” value amounted to 59.9±9.4%. The “benzamil-sensitive Isc, normalized to control (maximum reduction)” value in the test on ENaC [2] (2 ng/mL IL-4, day 10) turned out to be 8.6±5%.
